In patent US11479546B2, “Antimalarial hexahydropyrimidine analogues” (UCB Biopharma SRL, priority 2018, dated 2022):

Test system: Plasmodium falciparum 3D7
Assay: P. falciparum 3D7 asexual blood stage assay, Assay Procedure Version 2 (SYBR green readout)
Assay type: cell-based
Conditions: Version 2 of the assay procedure (asterisk *), 72 h incubation in infected erythrocytes, 50,000 nM to 15 nM
Experimental: Asexual Blood Stage Assay
The assay used to measure the effect of test compounds on a bloodstream stage of Plasmodium falciparum 3D7 strain employs SYBR green as the readout. This is a dye that binds to double stranded deoxyribonucleic acid (DNA) with a resulting increase in fluorescence, allowing detection of P. falciparum DNA in infected erythrocytes, and thereby providing a measure of parasite growth and propagation.
P. falciparum Culture Maintenance
Erythrocytes (A+blood) were prepared for both parasite culture and assay by washing 4 times with incomplete media (15.9 g RPMI 1640 (25 mM HEPES, L-glutamine), 1 g NaHCO3, 2 g glucose, 400 μL gentacin (500 mg/mL), 2 mL hypoxanthine solution (13.6 g/L in 0.1M NaOH pH 7.3) in 1 litre of media). The cells were centrifuged at 1800 g for 5 minutes, before decanting the supernatant and re-suspending in fresh incomplete media. On the final wash, the cells were re-suspended in complete media (incomplete media with 5 g/L AlbumaxII), and centrifuged at 1800 g for 3 minutes. This cell sediment was treated as 100% haematocrit.
P. falciparum 3D7 was cultured in erythrocytes at 5% haematocrit in complete media at 37° C. (1% O2, 3% CO2, balance N2). Cultures were split on a weekly basis to achieve a 1% parasitaemia in erythrocites at 5% haematocrit in fresh media. Culture media is replaced by fresh media every other day (2 times during the week).
[formula] where A=% inhibition at bottom; B=% inhibition at top; C=EC50; D=slope; x=inhibitor concentration; and y=% inhibition. […] Assay Procedure—Version 2
On day 1, test compounds were added to assay plates using Echo dispensing technology ([…] and 20 points titration). 50 nL of each compound dilution was added to 50 μL of culture (5% haematocrit, 0.5% parasitaemia) and incubated for 72 h at 37° C. (1% O2, 3% CO2, balance N2). Final concentrations of test compounds ranged from 50,000 nM to 15 nM, in […].
On day 4, 10 μL SYBR green (Invitrogen S7563 supplied as 10,000× concentrate in DMSO) pre-diluted to 3× concentrate with Lysis buffer (20 mM Tris pH 7.9, 5% EDTA, 0.16% w/v, 1.6% TX100 v/v) was added to the cultures and incubated in the dark, overnight, at room temperature.
On day 5, fluorescent signal was measured using a BioTek plate reader (excitation 485 nm, emission 528 nm). All data were processed using IDBS ActivityBase. Raw data were converted into percent inhibition through linear regression by setting the high inhibition control (mefloquine) as 100% and the no inhibition control (DMSO) as 0%. Quality control criteria for passing plates were as follows: Z′>0.5, S:B>3, % CV(no inhibition control)<15. The formula used to calculate Z′ is:
[formula] where μ denotes the mean; σ denotes the standard deviation; p denotes the positive control; and n denotes the negative control.
All EC50 curve fitting was undertaken using the following bi-phasic two site dose response using XLfit model 300 (IDBS):
[formula] where A=100 minus the top of the upper curve 1 and the bottom of lower curve; B=Hill slope; log(C)=IC50 concentration at lower site; log(D)=IC50 concentration at upper site; x=inhibitor concentration; and y=% inhibition.

[1] = Plasmodium falciparum, 3D7, Erythrocyte, 72 h

SMILES	IC50 [1]	IC50
CC1(C)CC(N2C(=N)N[C@](C)(c3cccc(Nc4cnc(C5CC5)cn4)c3Cl)CC2=O)CCO1 (single isomer, unassigned) [Example 151, (6S)-6-{2-Chloro-3-[(5-cyclo-propylpyrazin-2-yl)amino]-phenyl}-3-[(4S*)-2,2-dimethyl-tetrahydropyran-4-yl]-2-imino-6-methylhexahydropyrimidin-4-one]	707 nM	
C[C@@]1(c2cccc(Nc3cnc(OC(F)F)c4ccccc34)c2Cl)CC(=O)N(C2CCOCC2)C(=N)N1 [Example 95, (6S)-6-(2-Chloro-3-{[1-(difluoromethoxy)isoquinolin-4-yl]amino}phenyl)-2-imino-6-methyl-3-(tetrahydropyran-4-yl)hexahydropyrimidin-4-one]	456 nM	
C[C@@]1(c2cccc(Nc3ccc(OC(F)F)nc3)c2Cl)CC(=O)N(C2CCC(F)(F)CC2)C(=N)N1 [Example 140, (6S)-6-(2-Chloro-3-{[6-(difluoromethoxy)pyridin-3-yl]-amino}phenyl)-3-(4,4-difluoro-cyclohexyl)-2-imino-6-methyl-hexahydropyrimidin-4-one]	704 nM	
C[C@@]1(c2cccc(Nc3ccc(C4CC4)nc3)c2Cl)CC(=O)N([C@H]2C[C@](O)(C(F)(F)F)C2)C(=N)N1 [Example 154, (6S)-6-{2-Chloro-3-[(6-cyclo-propylpyridin-3-yl)amino]-phenyl}-3-[3-hydroxy-3-(trifluoromethyl)cyclobutyl]-2-imino-6-methylhexahydro-pyrimidin-4-one (cis isomer)]	884 nM	
C[C@@H]1C[C@H](N2C(=N)N[C@](C)(c3cccc(Nc4cc(F)c5ccnn5c4)c3Cl)CC2=O)CCO1 (stereo in doubt) [Example 137, (6S)-6-{2-Chloro-3-[(4-fluoro-pyrazolo[1,5-a]pyridin-6-yl)-amino]phenyl}-2-imino-6-methyl-3-[(cis)-2-methyl-tetrahydropyran-4-yl]-hexahydropyrimidin-4-one]	158 nM	
C[C@@]1(c2cccc(Nc3ccc(C(F)F)nc3C#N)c2Cl)CC(=O)N(C2CCOCC2)C(=N)N1 [Example 100, 3-{2-Chloro-3-[(4S)-2-imino-4-methyl-6-oxo-1-(tetrahydro-pyran-4-yl)hexahydropyrimidin-4-yl]anilino}-6-(difluoro-methyl)pyridine-2-carbonitrile]	347 nM	
C[C@@H]1C[C@H](N2C(=N)N[C@](C)(c3cccc(Nc4ccc(Cl)cc4)c3Cl)CC2=O)CCO1 (relative stereo) [Example 155, (6S)-6-[2-Chloro-3-(4-chloro-anilino)phenyl]-2-imino-6-methyl-3-[(2R*,4R*)-2-methyl-tetrahydropyran-4-yl]-hexahydropyrimidin-4-one]	71 nM	
CN(C)c1ccc(Nc2cccc([C@]3(C)CC(=O)N(C4CCOCC4)C(=N)N3)c2Cl)cn1 [Example 72, (6S)-6-(2-Chloro-3-{[6-(dimethylamino)pyridin-3-yl]-amino}phenyl)-2-imino-6-methyl-3-(tetrahydropyran-4-yl)hexahydropyrimidin-4-one]	325 nM	
Cc1ccc(Nc2cccc([C@]3(C)CC(=O)N([C@H]4C[C@](O)(C(F)(F)F)C4)C(=N)N3)c2Cl)cn1 [Example 152, (6S)-6-{2-Chloro-3-[(6-methyl-pyridin-3-yl)amino]phenyl}-3-[3-hydroxy-3-(trifluoromethyl)-cyclobutyl]-2-imino-6-methyl-hexahydropyrimidin-4-one (cis isomer)]	613 nM	
Cc1ccc(Nc2cccc([C@]3(C)CC(=O)N(C4CCOCC4)C(=N)N3)c2Cl)nn1 [Example 84, (6S)-6-{2-Chloro-3-[(6-methyl-pyridazin-3-yl)amino]phenyl}-2-imino-6-methyl-3-(tetrahydro-pyran-4-yl)hexahydropyrimidin-4-one]	1540 nM	
Cc1ccc(Nc2cccc([C@]3(C)CC(=O)N([C@H]4C[C@@](O)(C(F)(F)F)C4)C(=N)N3)c2Cl)cn1 [Example 153, (6S)-6-{2-Chloro-3-[(6-methyl-pyridin-3-yl)amino]phenyl}-3-[3-hydroxy-3-(trifluoromethyl)-cyclobutyl]-2-imino-6-methyl-hexahydropyrimidin-4-one (trans isomer)]	3220 nM	
CC[C@]1(O)C[C@@H](N2C(=N)N[C@](C)(c3cccc(Nc4ccc(F)cc4)c3Cl)CC2=O)C1 [Example 178, (6S)-6-[2-Chloro-3-(4-fluoro-anilino)phenyl]-3-(3-ethyl-3-hydroxycyclobutyl)-2-imino-6-methylhexahydropyrimidin-4-one (cis isomer)]	428 nM	
C[C@@]1(c2cccc(Nc3ccc(N4CCC4)nc3)c2Cl)CC(=O)N(C2CCOCC2)C(=N)N1 [Example 113, (6S)-6-(3-{[6-(Azetidin-1-yl)-pyridin-3-yl]amino}-2-chloro-phenyl)-2-imino-6-methyl-3-(tetrahydropyran-4-yl)-hexahydropyrimidin-4-one]	225 nM	
Cc1nnc(-c2ccc(Nc3cccc([C@]4(C)CC(=O)N(C5CCOCC5)C(=N)N4)c3Cl)cc2)o1 [Example 80, (6S)-6-{2-Chloro-3-[4-(5-methyl-1,3,4-oxadiazol-2-yl)-anilino]phenyl}-2-imino-6-methyl-3-(tetrahydropyran-4-yl)hexahydropyrimidin-4-one]	652 nM	
C[C@@]1(c2cccc(Nc3ccc(OC(F)(F)F)nc3)c2Cl)CC(=O)N(C2CCOCC2)C(=N)N1 [Example 45, (6S)-6-(2-Chloro-3-{[6-(trifluoromethoxy)pyridin-3-yl]-amino}phenyl)-2-imino-6-methyl-3-(tetrahydropyran-4-yl)hexahydropyrimidin-4-one]	305 nM	
C[C@@H]1C[C@H](N2C(=N)N[C@](C)(c3cccc(Nc4ccc(OCC(F)(F)F)nn4)c3Cl)CC2=O)CCO1 (relative stereo) [Example 202, (6S)-6-(2-Chloro-3-{[6-(2,2,2-trifluoroethoxy)pyridazin-3-yl]-amino}phenyl)-2-imino-6-methyl-3-[(2R*,4R*)-2-methyl-tetrahydropyran-4-yl]-hexahydropyrimidin-4-one]	112 nM	
Cc1ccc(Nc2cccc([C@]3(C)CC(=O)N([C@@H]4CCO[C@H](C)C4)C(=N)N3)c2Cl)cn1 (single isomer, unassigned) [Example 135]	21 nM	
CC1(C#N)CC(N2C(=N)N[C@](C)(c3cccc(Nc4ccc(F)cc4)c3Cl)CC2=O)C1 [Example 180, 3-{(4S)-4-[2-Chloro-3-(4-fluoroanilino)phenyl]-2-imino-4-methyl-6-oxohexahydro-pyrimidin-1-yl}-1-methyl-cyclobutanecarbonitrile (trans isomer)]		629 nM
C[C@@]1(c2cccc(Nc3ccc(F)cc3S(C)(=O)=O)c2Cl)CC(=O)N(C2CCOCC2)C(=N)N1 [Example 104, (6S)-6-{2-Chloro-3-[4-fluoro-2-(methylsulfonyl)anilino]-phenyl}-2-imino-6-methyl-3-(tetrahydropyran-4-yl)-hexahydropyrimidin-4-one]	131 nM	
Cc1ccc(Nc2cccc([C@]3(C)CC(=O)N([C@H]4C[C@](O)(C(C)C)C4)C(=N)N3)c2Cl)cn1 [Example 134, (6S)-6-{2-Chloro-3-[(6-methyl-pyridin-3-yl)amino]phenyl}-3-(3-hydroxy-3-isopropylcyclo-butyl)-2-imino-6-methyl-hexahydropyrimidin-4-one]	3970 nM	
C[C@@]1(c2cccc(Nc3cccc(N4CCCC4=O)c3)c2Cl)CC(=O)N(C2CCOCC2)C(=N)N1 [Example 79, (6S)-6-{2-Chloro-3-[3-(2-oxo-pyrrolidin-1-yl)anilino]phenyl}-2-imino-6-methyl-3-(tetrahydro-pyran-4-yl)hexahydropyrimidin-4-one]	401 nM	
Cc1ncc(Nc2cccc([C@]3(C)CC(=O)N(C4CCOCC4)C(=N)N3)c2Cl)c2ccccc12 [Example 90, (6S)-6-{2-Chloro-3-[(1-methyl-isoquinolin-4-yl)amino]phenyl}-2-imino-6-methyl-3-(tetrahydro-pyran-4-yl)hexahydropyrimidin-4-one]	3110 nM	
